Test results published in patent US10131670B2, “Bicyclic heteroaryl derivatives as CFTR potentiators” (CYSTIC FIBROSIS FOUNDATION THERAPEUTICS, INC., priority 2016, dated 2018).

Columns and labels:
F508del = F508del (Homo sapiens (Human), UniProt P13569, DEL508-508); conditions: F508del homozygote patients; cited from earlier work
G551D = G551D (Homo sapiens, UniProt P13569, G551D); conditions: G551D patients; cited from earlier work
F508del V470 CFTR = F508del V470 CFTR (Homo sapiens, UniProt P13569, DEL508-508); experiment: FRT Ion Flux Assay of F508del CFTR Potentiation; assay type: cell-based; conditions: FRT cells expressing F508del V470 CFTR and halide-sensitive YFP, forskolin 20 uM, 30 min
CFTR = CFTR (Homo sapiens, UniProt P13569); experiment: Ussing Chamber Electrophysiology Assay of CFTR Potentiation in CF Bronchial Epithelial Cells; assay type: cell-based; conditions: primary CF hBE cells, short-circuit current, scaled to DMSO (0%) and positive control potentiator (100%)
Procedure, shortened: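 Primary F508del/F508del (27 °C) or G551D/F508del (35 °C) CF hBE cultures, >30 days at air/liquid interface, short-circuit current under voltage clamp in HEPES saline. Sequential amiloride 30 uM, forskolin 10 uM, four rising compound concentrations, CFTRinh-172 20 uM, 20-25 min apart; scaled to DMSO (0%) and maximal positive-control potentiator response (100%).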

F508del V470 CFTR, sequence (P13569 with tags, fused parts or gaps DEL508-508): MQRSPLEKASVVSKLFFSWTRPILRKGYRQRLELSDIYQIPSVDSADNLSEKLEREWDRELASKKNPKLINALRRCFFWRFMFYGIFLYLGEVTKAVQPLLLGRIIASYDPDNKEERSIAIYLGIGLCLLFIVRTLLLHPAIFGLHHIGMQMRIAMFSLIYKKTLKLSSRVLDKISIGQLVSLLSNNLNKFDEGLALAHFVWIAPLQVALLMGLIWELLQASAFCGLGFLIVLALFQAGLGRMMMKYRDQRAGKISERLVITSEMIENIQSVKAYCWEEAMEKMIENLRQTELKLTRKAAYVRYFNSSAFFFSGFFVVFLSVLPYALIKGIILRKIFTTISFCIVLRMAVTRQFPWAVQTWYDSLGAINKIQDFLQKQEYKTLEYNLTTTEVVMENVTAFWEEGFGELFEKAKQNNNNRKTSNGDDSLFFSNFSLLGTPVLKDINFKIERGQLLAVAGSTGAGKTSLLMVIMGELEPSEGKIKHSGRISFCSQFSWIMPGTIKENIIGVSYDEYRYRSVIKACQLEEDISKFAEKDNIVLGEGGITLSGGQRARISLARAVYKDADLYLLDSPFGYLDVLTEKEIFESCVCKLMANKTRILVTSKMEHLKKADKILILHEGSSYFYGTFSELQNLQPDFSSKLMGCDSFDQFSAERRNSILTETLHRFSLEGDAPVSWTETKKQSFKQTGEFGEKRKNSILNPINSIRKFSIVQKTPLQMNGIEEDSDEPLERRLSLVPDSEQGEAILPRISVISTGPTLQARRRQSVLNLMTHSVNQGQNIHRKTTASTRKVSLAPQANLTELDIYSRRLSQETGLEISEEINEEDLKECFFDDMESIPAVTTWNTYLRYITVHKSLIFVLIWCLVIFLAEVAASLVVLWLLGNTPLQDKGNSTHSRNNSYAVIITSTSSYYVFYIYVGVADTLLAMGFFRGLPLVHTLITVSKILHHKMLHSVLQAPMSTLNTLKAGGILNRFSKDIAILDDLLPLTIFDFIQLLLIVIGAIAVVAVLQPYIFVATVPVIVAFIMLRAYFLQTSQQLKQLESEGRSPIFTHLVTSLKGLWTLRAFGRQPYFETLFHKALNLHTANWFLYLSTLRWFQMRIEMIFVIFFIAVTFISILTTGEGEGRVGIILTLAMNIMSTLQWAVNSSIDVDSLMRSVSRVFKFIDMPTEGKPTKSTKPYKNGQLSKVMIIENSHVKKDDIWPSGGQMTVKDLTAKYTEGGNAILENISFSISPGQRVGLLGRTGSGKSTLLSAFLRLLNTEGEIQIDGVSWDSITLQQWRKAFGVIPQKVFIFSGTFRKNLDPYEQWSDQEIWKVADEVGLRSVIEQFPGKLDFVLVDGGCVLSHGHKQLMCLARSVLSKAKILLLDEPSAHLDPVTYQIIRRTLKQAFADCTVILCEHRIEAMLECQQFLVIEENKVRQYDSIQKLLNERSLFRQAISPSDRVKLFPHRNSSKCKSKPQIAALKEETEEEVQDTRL
F508del, sequence (P13569 other isoform, or with tags, fused parts or gaps del F508-F508): as the sequence (P13569 with tags, fused parts or gaps DEL508-508) above

Question: Which improvement with monotherapy (F508del) does the source give for `CC(C)(C)c1cc(C(C)(C)C)c(NC(=O)c2c[nH]c3ccccc3c2=O)cc1O` [Kalydeco®, ivacaftor] here?
Answer: did not lead to any appreciable improvement

Question: What about the “percent predicted FEV1 increased” value (G551D) of the same compound?
Answer: 10-13%

Question: Which EC50 (F508del V470 CFTR) does the source give for `CC(c1cc(-c2ccccc2F)no1)c1c(C#N)c(-c2cnc(C(F)(F)F)nc2)c2c(N)ncnn12` (single isomer, unassigned) [Example 18, 4-amino-7-{1-[3-(2-fluorophenyl)-1,2-oxazol-5-yl]ethyl}-5-[2-(trifluoromethyl)pyrimidin-5-yl]pyrrolo[2,1-f][1,2,4]triazine-6-carbonitrile] here?
Answer: 3.1 nM

Question: What about the EC50 (CFTR) of the same compound?
Answer: 1.67 nM

Question: For `CC(c1cnn(-c2ccc(F)cc2F)c1)c1c(C#N)c(-c2cnc(C(F)(F)F)nc2)c2c(N)ncnn12` (single isomer, unassigned) [Example 21], which EC50 (F508del V470 CFTR) is on record?
Answer: 3.13 nM

Question: What about the EC50 (CFTR) of the same compound?
Answer: 0.66 nM

Question: What does the source list for `N#Cc1c(-c2cnc(C(F)(F)F)nc2)c2c(N)ncnn2c1Cc1cc(-c2ccccc2F)no1` [Example 35, 4-amino-7-{[3-(2-fluorophenyl)-1,2-oxazol-5-yl]methyl}-5-[2-(trifluoromethyl)pyrimidin-5-yl]pyrrolo[2,1-f][1,2,4]triazine-6-carbonitrile]?
Answer: EC50 (F508del V470 CFTR): 4.65 nM; EC50 (CFTR): 4 nM

Question: Which EC50 (F508del V470 CFTR) does the source give for `CCC(c1cn(-c2ccccc2)nn1)n1nc(-c2cnc(C(F)(F)F)nc2)c2c(N)ncnc21` (single isomer, unassigned) [Example 94, 1-[1-(1-phenyl-1H-1,2,3-triazol-4-yl)propyl]-3-[2-(trifluoromethyl)pyrimidin-5-yl]-1H-pyrazolo[3,4-d]pyrimidin-4-amine] here?
Answer: 50.3 nM

Question: And the EC50 (CFTR)?
Answer: 74.4 nM

Question: Which results are given for `CCC(c1cn(-c2ccc(F)cc2F)nn1)c1c(C#N)c(-c2cnc(C(F)(F)F)nc2)c2c(N)ncnn12` (single isomer, unassigned) [Example 6, 4-amino-7-{1-[1-(2,4-difluorophenyl)-1H-1,2,3-triazol-4-yl]propyl}-5-[2-(trifluoromethyl)pyrimidin-5-yl]pyrrolo[2,1-f][1,2,4]triazine-6-carbonitrile]?
Answer: EC50 (F508del V470 CFTR): 5.05 nM; EC50 (CFTR): 5.48 nM
